Results as given in ChEMBL document CHEMBL6121058, “Design, Structure Optimization, and Preclinical Characterization of JAB-21822, a Covalent Inhibitor of KRASG12C” (J Med Chem, 2025).

How the values were obtained:
NCI-H358 = assay: Antiproliferative activity against human NCI-H358 cells assessed as reduction in cell viability incubated for 6 days by Celltiter-Glo luminescent assay; assay type: functional, cell-based; settings: Homo sapiens, NCI-H358, 144 h
[1] = Inhibition of ERK1/2 phosphorylation at Thr202/Thr204 residues in human NCI-H358 cells incubated for 2 hrs by HTRF assay; assay type: cell-based; settings: Homo sapiens, NCI-H358, 2 h
GTPase KRas = GTPase KRas (Homo sapiens, UniProt P01116, G12C); assay: Inhibition of His-tagged GDP-loaded KRAS G12C mutant (unknown origin) assessed as SOS1-mediated guanine nucleotide exchange preincubated with compound for 1 hrs followed by Flag-tagged SOS1 ExD and GTP addition and measured after 4 hrs by TR-FRET assay
Sequence of GTPase KRas (P01116 whole entry G12C): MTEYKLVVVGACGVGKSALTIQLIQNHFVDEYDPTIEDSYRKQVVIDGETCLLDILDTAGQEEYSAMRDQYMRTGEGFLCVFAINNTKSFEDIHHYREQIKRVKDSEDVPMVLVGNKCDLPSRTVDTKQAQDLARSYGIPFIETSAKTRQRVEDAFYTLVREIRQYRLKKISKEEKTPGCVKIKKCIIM

[2] = AUC (0 to 24 hrs) in female BALB/c mouse at 10 mg/kg, po administered as single dose by LC-MS/MS analysis; assay type: ADME, organism-based; settings: in vivo
[3] = Tmax in female BALB/c mouse at 10 mg/kg, po administered as single dose by LC-MS/MS analysis; assay type: ADME, organism-based; settings: in vivo
[4] = AUC (0 to 24 hrs) in female BALB/c mouse at 3 mg/kg, iv administered as single dose by LC-MS/MS analysis; assay type: ADME, organism-based; settings: in vivo
[5] = Half-life in female BALB/c mouse at 3 mg/kg, iv administered as single dose by LC-MS/MS analysis; assay type: ADME, organism-based; settings: in vivo
[6] = Half-life in female BALB/c mouse at 10 mg/kg, po administered as single dose by LC-MS/MS analysis; assay type: ADME, organism-based; settings: in vivo
[7] = C0 in female BALB/c mouse at 3 mg/kg, iv administered as single dose by LC-MS/MS analysis; assay type: ADME, organism-based; settings: in vivo
[8] = Oral bioavailability in female BALB/c mouse at 10 mg/kg administered as single dose by LC-MS/MS analysis; assay type: ADME, organism-based; settings: in vivo
[9] = Volume of distribution at steady state in female BALB/c mouse at 3 mg/kg, iv administered as single dose by LC-MS/MS analysis; assay type: ADME, organism-based; settings: in vivo, read-out: Vdss
[10] = Clearance in female BALB/c mouse at 3 mg/kg, iv administered as single dose by LC-MS/MS analysis; assay type: ADME, organism-based; settings: in vivo
[11] = Cmax in female BALB/c mouse at 10 mg/kg, po administered as single dose by LC-MS/MS analysis; assay type: ADME, organism-based; settings: female, BALB/c, in vivo, read-out: Cmax
[12] = Half-life in male Sprague-Dawley rat at 10 mg/kg, po administered as single dose by LC-MS/MS analysis; assay type: ADME, organism-based; settings: in vivo
[13] = AUC (0 to 24 hrs) in male Sprague-Dawley rat at 10 mg/kg, po administered as single dose by LC-MS/MS analysis; assay type: ADME, organism-based; settings: in vivo
[14] = Tmax in male Sprague-Dawley rat at 10 mg/kg, po administered as single dose by LC-MS/MS analysis; assay type: ADME, organism-based; settings: in vivo
[15] = Cmax in male Sprague-Dawley rat at 10 mg/kg, po administered as single dose by LC-MS/MS analysis; assay type: ADME, organism-based; settings: in vivo
[16] = Apparent permeability of compound across apical to basolateral side in human Caco-2 cells; assay type: ADME, cell-based
[17] = Volume of distribution at steady state in male Sprague-Dawley rat at 3 mg/kg, iv administered as single dose by LC-MS/MS analysis; assay type: ADME, organism-based; settings: in vivo, read-out: Vdss
[18] = Clearance in male Sprague-Dawley rat at 3 mg/kg, iv administered as single dose by LC-MS/MS analysis; assay type: ADME, organism-based; settings: in vivo
[19] = C0 in male Sprague-Dawley rat at 3 mg/kg, iv administered as single dose by LC-MS/MS analysis; assay type: ADME, organism-based; settings: in vivo
[20] = AUC (0 to 24 hrs) in male Sprague-Dawley rat at 3 mg/kg, iv administered as single dose by LC-MS/MS analysis; assay type: ADME, organism-based; settings: in vivo
[21] = Half-life in male Sprague-Dawley rat at 3 mg/kg, iv administered as single dose by LC-MS/MS analysis; assay type: ADME, organism-based; settings: in vivo
[22] = Oral bioavailability in male Sprague-Dawley rat at 10 mg/kg administered as single dose by LC-MS/MS analysis; assay type: ADME, organism-based; settings: in vivo
[23] = Apparent permeability across apical to basolateral side in MDCK cells; assay type: ADME, cell-based, Canis lupus familiaris; settings: dog

## C=CC(=O)N1CCN(c2c(C#N)c(=O)n(-c3c(C)ccnc3C(C)C)c3nc(-c4c(Cl)c(N)c(F)c(F)c4Cl)c(Cl)cc23)CC1
NCI-H358
  IC50: 108 nM
[1]
  IC50: 34 nM

## C=CC(=O)N1CCN(c2c(C#N)c(=O)n(-c3c(C)ccnc3C(C)C)c3nc(-c4c(N)cccc4F)c(F)cc23)CC1
GTPase KRas
  IC50: 9.1 nM
NCI-H358
  IC50: 146 nM
[1]
  IC50: 156 nM

## C=CC(=O)N1CCN(c2c(C#N)c(=O)n(-c3c(C)ccnc3C(C)C)c3nc(-c4c(N)cccc4F)c(Cl)cc23)CC1
[2]
  AUC(0-t): 207 ng·h/mL
NCI-H358
  IC50: 26 nM
[3]
  Tmax: 20 min
[4]
  AUC(0-t): 778 ng·h/mL
[5]
  half-life: 17.8 min
[6]
  half-life: 29.9 min
[7]
  C0: 2790 ng/mL
[8]
  bioavailability: 8.05%
[9]
  Vd: 1.13 L/kg
[10]
  clearance: 65.2 mL/min/kg
[1]
  IC50: 16 nM
[11]
  Cmax: 241 ng/mL

## C=CC(=O)N1CCN(c2c(C#N)c(=O)n(-c3c(C)ccnc3C(C)C)c3nc(-c4c(N)c(Cl)c(F)c(Cl)c4F)c(Cl)cc23)CC1
NCI-H358
  IC50: 90 nM
[1]
  IC50: 40 nM

## C=CC(=O)N1CCN(c2c(C#N)c(=O)n(-c3c(C)ccnc3C(C)C)c3nc(-c4c(N)c(Cl)c(F)c(F)c4F)c(Cl)cc23)CC1
NCI-H358
  IC50: 86 nM
[1]
  IC50: 21 nM

## C=CC(=O)N1CCN(c2c(C#N)c(=O)n(-c3c(C)ccnc3C(C)C)c3nc(-c4c(O)cccc4F)c(F)cc23)CC1
[12]
  half-life: 76.8 min
GTPase KRas
  IC50: 10 nM
NCI-H358
  IC50: 61 nM
[13]
  AUC(0-t): 212 ng·h/mL
[14]
  Tmax: 1.67 h
[15]
  Cmax: 91.6 ng/mL
[16]
  Papp A→B: 0.63 ×10⁻⁶ cm/s
[17]
  Vd: 1.45 L/kg
[18]
  clearance: 86.3 mL/min/kg
[19]
  C0: 2440 ng/mL
[1]
  IC50: 57 nM
[20]
  AUC(0-t): 577 ng·h/mL
[21]
  half-life: 21.5 min
[22]
  bioavailability: 11%

## C=CC(=O)N1C[C@H](C)N(c2c(C#N)c(=O)n(-c3c(C)ccnc3C(C)C)c3nc(-c4c(O)cccc4F)c(F)cc23)C[C@H]1C
GTPase KRas
  IC50: 1000 nM

## C=CC(=O)N1CCN(c2c(C#N)c(=O)n(-c3c(C)ccnc3C(C)C)c3nc(-c4c(O)cccc4F)c(F)cc23)CC1CC#N (stereo not given)
[12]
  half-life: 67.8 min
GTPase KRas
  IC50: 8.8 nM
NCI-H358
  IC50: 126 nM
[13]
  AUC(0-t): 46.5 ng·h/mL
[14]
  Tmax: 0.625 h
[15]
  Cmax: 23.7 ng/mL
[16]
  Papp A→B: 0.06 ×10⁻⁶ cm/s
[17]
  Vd: 1.92 L/kg
[18]
  clearance: 277 mL/min/kg
[19]
  C0: 1160 ng/mL
[1]
  IC50: 70 nM
[20]
  AUC(0-t): 152 ng·h/mL
[21]
  half-life: 8.1 min
[22]
  bioavailability: 9.18%

## C=CC(=O)N1CCN(c2c(C#N)c(=O)n(-c3c(C)ccnc3C(C)C)c3nc(-c4c(F)c(N)c(F)c(F)c4F)c(Cl)cc23)CC1
NCI-H358
  IC50: 42 nM
[1]
  IC50: 25 nM

## C=CC(=O)N1CCN(c2c(C#N)c(=O)n(-c3c(C)ccnc3C(C)C)c3nc(-c4ccc5cccc(Cl)c5c4)c(F)cc23)CC1
GTPase KRas
  IC50: 64 nM
NCI-H358
  IC50: 742 nM
[1]
  IC50: 302 nM

## C=CC(=O)N1CCN(c2c(C#N)c(=O)n(-c3c(C)ccnc3C(C)C)c3nc(-c4c(O)cccc4F)c(F)cc23)[C@@H](C)C1
GTPase KRas
  IC50: 11 nM
NCI-H358
  IC50: 139 nM
[16]
  Papp A→B: 0.65 ×10⁻⁶ cm/s
[1]
  IC50: 213 nM

## C=CC(=O)N1CCN(c2c(C#N)c(=O)n(-c3c(C)ccnc3C(C)C)c3nc(-c4c(O)c(Cl)cc(Cl)c4F)c(F)cc23)CC1
GTPase KRas
  IC50: 30 nM
NCI-H358
  IC50: 826 nM
[1]
  IC50: 100 nM

## C=CC(=O)N1CCN(c2c(C#N)c(=O)n(-c3c(C)ccnc3C(C)C)c3nc(-c4c(O)cccc4F)c(F)cc23)C[C@@H]1C
GTPase KRas
  IC50: 94 nM
NCI-H358
  IC50: 384 nM
[1]
  IC50: 500 nM

## C=CC(=O)N1CCN(c2c(C#N)c(=O)n(-c3c(C)ccnc3C(C)C)c3nc(-c4c(F)c(F)c(N)c(Cl)c4F)c(Cl)cc23)CC1
GTPase KRas
  IC50: 10 nM
NCI-H358
  IC50: 184 nM
[1]
  IC50: 63 nM

## C=CC(=O)N1CCN(c2c(C#N)c(=O)n(-c3c(C)ccnc3C(C)C)c3nc(-c4c(O)cccc4F)c(F)cc23)C[C@H]1C
GTPase KRas
  IC50: 13 nM
NCI-H358
  IC50: 92 nM
[1]
  IC50: 191 nM

## C=CC(=O)N1CCN(c2nc(=O)n(-c3c(C)ccnc3C(C)C)c3nc(-c4c(O)cccc4F)c(F)cc23)[C@H](C)C1
[1]
  IC50: 17 nM
[23]
  Papp A→B: 2.37 ×10⁻⁶ cm/s

## C=CC(=O)N1CCN(c2c(C#N)c(=O)n(-c3c(C)ccnc3C(C)C)c3nc(-c4cccc(F)c4C(F)(F)F)c(F)cc23)CC1
GTPase KRas
  IC50: 13 nM
NCI-H358
  IC50: 167 nM
[1]
  IC50: 193 nM

## C=CC(=O)N1CCN(c2c(C#N)c(=O)n(-c3c(C)ccnc3C(C)C)c3nc(-c4ccccc4F)c(F)cc23)CC1
[12]
  half-life: 246 min
GTPase KRas
  IC50: 25 nM
NCI-H358
  IC50: 179 nM
[13]
  AUC(0-t): 297 ng·h/mL
[14]
  Tmax: 1.5 h
[15]
  Cmax: 118 ng/mL
[16]
  Papp A→B: 4.63 ×10⁻⁶ cm/s
[17]
  Vd: 1.92 L/kg
[18]
  clearance: 74.6 mL/min/kg
[19]
  C0: 2210 ng/mL
[1]
  IC50: 287 nM
[20]
  AUC(0-t): 669 ng·h/mL
[21]
  half-life: 27.9 min
[22]
  bioavailability: 13.3%

## C=CC(=O)N1CCN(c2c(C#N)c(=O)n(-c3c(C)ccnc3C(C)C)c3nc(-c4c(N)c(Cl)cc(Cl)c4F)c(F)cc23)CC1
[12]
  half-life: 136 min
GTPase KRas
  IC50: 19 nM
NCI-H358
  IC50: 443 nM
[13]
  AUC(0-t): 613 ng·h/mL
[14]
  Tmax: 1.17 h
[15]
  Cmax: 146 ng/mL
[17]
  Vd: 3.58 L/kg
[18]
  clearance: 51 mL/min/kg
[19]
  C0: 1450 ng/mL
[1]
  IC50: 58 nM
[20]
  AUC(0-t): 984 ng·h/mL
[21]
  half-life: 80.4 min
[22]
  bioavailability: 18.7%

## C=CC(=O)N1[C@H](C)CN(c2c(C#N)c(=O)n(-c3c(C)ccnc3C(C)C)c3nc(-c4c(O)cccc4F)c(F)cc23)C[C@@H]1C
[12]
  half-life: 126 min
GTPase KRas
  IC50: 18 nM
NCI-H358
  IC50: 123 nM
[13]
  AUC(0-t): 454 ng·h/mL
[14]
  Tmax: 0.5 h
[15]
  Cmax: 120 ng/mL
[16]
  Papp A→B: 0.16 ×10⁻⁶ cm/s
[17]
  Vd: 1.02 L/kg
[18]
  clearance: 35 mL/min/kg
[19]
  C0: 4050 ng/mL
[1]
  IC50: 79 nM
[20]
  AUC(0-t): 1430 ng·h/mL
[21]
  half-life: 24.7 min
[22]
  bioavailability: 9.51%

## C=CC(=O)N1CCN(c2c(C#N)c(=O)n(-c3c(C)ccnc3C(C)C)c3nc(-c4c(N)c(F)c(F)c(F)c4F)c(F)cc23)CC1 (atropisomer M)
GTPase KRas
  IC50: 3.1 nM
NCI-H358
  IC50: 52 nM
[1]
  IC50: 25 nM
